Four compounds from ChEMBL document CHEMBL1135030, “Antitumor agents. Part 212. Bucidarasins A-C, three new cytotoxic clerodane diterpenes from Bucida buceras” (Bioorg Med Chem Lett, 2002) can be followed below.

What is called IC50 is the concentration that gives 50% inhibition. The term inhibition denotes the change of the read-out against control, counted positive when it falls.

The subject of assay [1] is HOS. Nature of the assay: In vitro cytotoxicity against parental and drug resistant bone human tumor cell line HOS. The format is functional, cell-based.
Assay [2] relates to KB. Nature of the assay: In vitro cytotoxicity against parental and drug resistant camptothecin resistant human tumor cell line KB-CPT. The format is functional, cell-based.
Assay [3] concerns HCT-8. Nature of the assay: In vitro cytotoxicity against parental and drug resistant ileococal human tumor cell line HCT-8. It counts as functional, cell-based.
For assay [4], the system named is KB. Nature of the assay: In vitro cytotoxicity against parental and drug resistant nasopharyngeal human tumor cell line KB. It counts as functional, cell-based.
The test system of assay [5] is MCF7. Nature of the assay: In vitro cytotoxicity against parental and drug resistant breast human tumor cell line MCF-7. The format is functional, cell-based.
For assay [6], the system named is SK-MEL-2. As to the kind of experiment: In vitro cytotoxicity against parental and drug resistant melanoma human tumor cell line SK-MEL-2. The format is functional, cell-based.
For assay [7], the system named is 1A9. Nature of the assay: In vitro cytotoxicity against parental and drug resistant ovarian human tumor cell line IA9. The format is functional, cell-based.
Assay [8] deals with CAKI-1. As to the kind of experiment: In vitro cytotoxicity against parental and drug resistant kidney human tumor cell line CAKI. It counts as functional, cell-based.
Assay [9] relates to U-87 MG. Nature of the assay: In vitro cytotoxicity against parental and drug resistant glioblastoma human tumor cell line U87MG. The format is functional, cell-based, U-87MG ATCC.
In assay [10] the test system is A549. Nature of the assay: In vitro cytotoxicity against parental and drug resistant lung human tumor cell line A549. It counts as functional, cell-based.
In assay [11] the test system is KB. Nature of the assay: In vitro cytotoxicity against parental and drug resistant vincristine resistant human tumor cell line KB-VIN. It counts as functional, cell-based.
Assay [12] deals with KB. Nature of the assay: In vitro cytotoxicity against parental and drug resistant etoposide resistant human tumor cell line KB-7d. The format is functional, cell-based.
Assay [13] deals with 1A9/ptx-10. As to the kind of experiment: In vitro cytotoxicity against parental and drug resistant paclitaxel human tumor cell line IA9-PTX10. The format is functional, cell-based.
For assay [14], the system named is HCT-8. As to the kind of experiment: In vitro cytotoxicity against parental and drug resistant ileococal human tumor cell line HCT-8; Not active at 10 uM. The format is functional, cell-based.
The subject of assay [15] is KB. As to the kind of experiment: In vitro cytotoxicity against parental and drug resistant camptothecin resistant human tumor cell line KB-CPT; Not active at 10 uM. It counts as functional, cell-based.
The test system of assay [16] is SK-MEL-2. Nature of the assay: Percentage inhibition against parental and drug resistant melanoma human tumor cell line SK-MEL-2 at 10 uM. The format is functional.
The subject of assay [17] is 1A9. Nature of the assay: In vitro cytotoxicity against parental and drug resistant ovarian human tumor cell line IA9; Not active at 10 uM. The format is functional, cell-based.
For assay [18], the system named is MCF7. As to the kind of experiment: In vitro cytotoxicity against parental and drug resistant breast human tumor cell line MCF-7 at 10 uM. It counts as functional.
Assay [19] relates to KB. As to the kind of experiment: Percentage inhibition against parental and drug resistant etoposide resistant human tumor cell line KB-7d at 10 uM. The format is functional.
The test system of assay [20] is 1A9/ptx-10. As to the kind of experiment: In vitro cytotoxicity against parental and drug resistant paclitaxel human tumor cell line IA9-PTX10; Not active at 10 uM. It counts as functional, cell-based.
The subject of assay [21] is A549. Nature of the assay: Percentage inhibition against parental and drug resistant lung human tumor cell line A549 at 10 uM. The format is functional.
Assay [22] has as its system KB. As to the kind of experiment: Percentage inhibition against parental and drug resistant vincristine resistant human tumor cell line KB-VIN at 10 uM. The format is functional.
The subject of assay [23] is KB. As to the kind of experiment: Percentage inhibition against parental and drug resistant nasopharyngeal human tumor cell line KB at 10 uM. The format is functional.
Assay [24] deals with U-87 MG. Nature of the assay: In vitro cytotoxicity against parental and drug resistant glioblastoma human tumor cell line U87MG; Not active at 10 uM. The format is functional, cell-based. As to conditions: u-87mg atcc; call rule not given here.
Assay [25] concerns KB. As to the kind of experiment: Tested for cytotoxicity against parental and drug resistant etoposide resistant human tumor cell line KB-7d. It counts as functional, cell-based.
Assay [26] concerns HOS. As to the kind of experiment: In vitro cytotoxicity against parental and drug resistant bone human tumor cell line HOS; Not active at 10 uM. It counts as functional, cell-based.
Assay [27] concerns CAKI-1. As to the kind of experiment: In vitro cytotoxicity against parental and drug resistant kidney human tumor cell line CAKI; Not active at 10 uM. It counts as functional, cell-based.

As for `C=C/C(C)=C/C[C@@]1(C)[C@@H](C)C[C@@H](O)C23C(=C[C@@H](OC(=O)C(C)C)C[C@@H]21)[C@H](OC(C)=O)O[C@@H]3OC(C)=O` (stereo partly drawn), the half-inhibitory concentration (IC50) in assay [1] is 800 nM; in assay [2], 800 nM; in assay [3] it was 900 nM; in [4], 900 nM; in [5], 900 nM; in assay [6], 700 nM. The IC50 turned out to be 500 nM in assay [7]; 1100 nM in assay [8]; 1000 nM in assay [9]; 500 nM in assay [10]; 1100 nM in [11]; 800 nM in assay [12]. Further, the IC50 in [13] was 500 nM.
Take `C=C/C(C)=C/C[C@@]1(C)[C@@H](C)CC[C@]2(COC(C)=O)C(COC(C)=O)=CC(=O)C[C@@H]21`: the IC50 result in assay [14] was “Not Active”; in assay [15], “Not Active”; in [4], > 10000 nM; in [5], > 10000 nM; in assay [6], > 10000 nM; in assay [17] it was “Not Active”. Moreover, the IC50 result in assay [20] was “Not Active”; in assay [24], “Not Active”; in assay [25], > 10000 nM; in assay [10] it was > 10000 nM; in [11], > 10000 nM; in assay [26], “Not Active”. Besides, the 50% inhibitory concentration (IC50) result in assay [27] is “Not Active”. For the same compound, the inhibition at 10 µM in [16] was found to be 7%; in assay [18] it was 12%; in assay [19] it was 23%; in assay [21], 6%; in assay [22] it was 22%; in [23], 7%.
As to `C=C/C(C)=C/C[C@]1(C)[C@H]2C[C@H](OC(=O)C(C)CC)C=C3[C@H](OC(C)=O)O[C@H](OC(C)=O)[C@@]32[C@H](O)C[C@@H]1C` (stereo partly drawn) [CASEARLUCIN A], the IC50 in assay [1] is 1200 nM; in [2], 1100 nM; in assay [3] it was 1300 nM; in assay [4], 1100 nM; in assay [5], 1800 nM; in assay [6], 1000 nM. Moreover, the half-maximal inhibitory concentration (IC50) is 1000 nM in [7]; 1900 nM in assay [8]; 1400 nM in assay [9]; 1100 nM in assay [10]; 1200 nM in [11]; 1100 nM in assay [12]. Besides, in assay [13], the 50% inhibitory concentration (IC50) worked out at 1100 nM.
For the compound `C=C/C(C)=C/C[C@@]1(C)[C@@H](C)CCC23C(=C[C@@H](OC(=O)C(C)C)C[C@@H]21)[C@H](OC(C)=O)O[C@@H]3OC(C)=O` (stereo partly drawn), the IC50 is 900 nM in assay [1]; 900 nM in assay [2]; 1000 nM in [3]; 900 nM in [4]; 1100 nM in [5]; 1000 nM in assay [6]. For the same compound, the half-inhibitory concentration (IC50) in assay [7] is 600 nM; in assay [8], 1800 nM; in assay [9], 1200 nM; in [10] it was 1100 nM; in assay [11], 1000 nM; in assay [12] it was 900 nM. Further, the IC50 in assay [13] turned out to be 500 nM.
